The text below walks through data of a melting point compilation (Tetko et al.; mined from patent text by program, amines drawn as free bases though some values may be those of a salt).

SMILES strings stand for the structures.

A word on the melting point: it is the temperature, or range, at which the solid turns liquid. In turn, `Nc1c(-c2ccc(I)cc2)nc2ccc(F)cc2c1C(=O)O` had a melting point of 251 to 253 °C.

Consider `CC1(C)C(=O)C(C)(C)c2cc(C(O)CN3CCN(c4nsc5ccccc45)CC3)ccc21` (centres undefined), for which the melting point lay within 189 to 191 °C. Compound `CCCCc1ccc2scc(NC(=O)C(=O)OC)c(=O)c2c1` registered a melting point of 192 to 194 °C.

With `CC1CC(C)(CO)CN1c1ccc(C#N)c2ccccc12` (centres undefined), the melting point lay in the range of 100 to 101 °C.

On to `C=C(C(=O)c1ccccc1)c1cccnc1`, for which the melting point lay within 113 to 114 °C. The value for `OCCC1CC2CCN1CC2` (centres undefined) was 62 to 64 °C; that for `CCc1cc(OC)cc2nc(-c3ccc(OC)cc3)oc12` was 85 °C. The value for `CCCCc1nc2c(N)nc3ccccc3c2n1CCNC(=O)CCCCC1SCC2NC(=N)NC21` (centres undefined) was 95 to 96 °C. The value for `C[C@H]1CCCN(C(=O)[C@@H]2Cc3ccccc3N2c2nccs2)C1` was 167 to 169 °C; that for `COc1ccc(CN2CCc3cc(O)ccc3C2)c(OC)c1` was 149 to 152 °C; that for `Cc1nc2sc(Br)cc2c(=O)n1-c1ccccc1Cl` was 164 to 166 °C.

Take `Cc1cc2c(c(C)c1NCc1ccccc1)C(c1ccc(C(C)C)cc1)CO2` (centres undefined): the melting point was 82 to 83 °C. The value for `CCN1C(=O)C(C)(C)C(=O)N(C)c2cc(CN(CCn3ccc4oc(C)cc4c3=O)Cc3cnccn3)ccc21` was 129 to 131 °C; that for `Clc1cnn2c(-c3ccncc3)ccnc12` was 183 to 184 °C. The value for `Cn1c(C(=O)N2CCC[C@@H]3CCCC[C@H]32)cc2ccccc21` (relative stereo) was 87 to 90 °C; that for `CCCOc1ccccc1-c1nc2nc(N(CC)CC)ncc2c(=O)[nH]1` was 116 to 117 °C. The value for `O=C(NCc1cccc(OCCOc2nc[nH]n2)c1)c1nc2ccc(F)c(F)c2c(=O)[nH]1` was 205 to 207 °C; that for `CC(C)(C)c1ccc(C(=O)Nc2cn3nc(-n4cnc(Br)c4)ccc3n2)cc1` was 306 to 307 °C; that for `Cc1ccc2nc(-c3ccc(Cl)cc3)c(CN3CCCC3=O)n2c1` was 186 to 188 °C.

The compound `N#CCc1ccc(OCc2ccccc2)c(OCc2ccccc2)c1CCc1cccc(OCc2ccccc2)c1` yielded a melting point of 90 °C. The value for `OC(CCc1cccnc1)COc1ccc(OCc2ccccc2)cc1` (centres undefined) was 79 to 82 °C; that for `O=C(O)CNC(=O)c1ccc([N+](=O)[O-])cc1[N+](=O)[O-]` was 188 to 190 °C. `COCCOc1ccn(O)c(=O)c1` registered a melting point of 134 °C. In the case of `CC(C)(C)c1cc(CCC(=O)NCCNc2c(Cl)nc(Cl)c(Cl)c2C#N)cc(C(C)(C)C)c1O`, the melting point lay within 150 to 160 °C. The value for `CC1(C)CC(c2ccccn2)c2cc(C#N)ccc2O1` (centres undefined) was 114 to 115 °C; that for `COc1ccc(N(CC(=O)O)c2ccccc2)c(C(=O)O)c1` was 158 to 161 °C; that for `O=C(O)[C@H](Cc1ccccc1)N[C@@H](Cc1c[nH]c2ccccc12)C(=O)OCc1ccccc1` was 147 to 150 °C. The compound `CC#CCOc1ccc(C(=O)N(C)C[C@@H](C(=O)NO)N2CCN(S(C)(=O)=O)CC2)cc1` displayed a melting point of 145 °C.

The compound `CC(C)C(=O)c1c(C2CC2)nn2ccccc12` registered a melting point of 108 to 109 °C. The value for `Nc1nc(CCl)cc(OCC(F)(F)F)n1` was 77 to 78 °C. In turn, `Cc1nc2cc(C(=O)NC3CC3)c(NC(=O)c3cc(C(F)(F)F)nn3-c3ncccc3Cl)c(Cl)c2nc1C` displayed a melting point of 255 to 258 °C. Consider `CCCCNc1ccc(OC)c(Cl)c1Cl`, for which the melting point was 47 to 49 °C.

Turning to `FC(F)(F)c1ccccc1P(=S)(S)c1ccccc1C(F)(F)F`, the melting point was 93 to 94 °C. For the compound `C[C@H](C#Cc1cc(Cc2ccc(F)cc2)cs1)N(O)C(N)=O`, the melting point lay within 105 to 108 °C.

With `Oc1ccc(OCc2ccccc2)c2ccccc12`, the melting point is 118 to 119 °C. The compound `CC(=O)CC(=O)C=Cc1ccc2[nH]ccc2c1` gave a melting point of 136 to 137 °C. On to `N#Cc1ccc2oc3ncccc3c(=O)c2c1`, for which the melting point was 260 °C. The value for `CCOC(=O)c1cc2c(cc(C)n2OC)nc1C(=O)OCC` was 94.5 to 96.5 °C; that for `CCCc1ccc(-c2ccc(C(=O)N3Cc4cccn4Cc4ccccc43)cc2)cc1` was 118 to 120 °C; that for `NC(=O)c1ccc(-c2ccccc2C(=O)N2Cc3cccn3Cc3ccccc32)cc1C(F)(F)F` was 226 to 228 °C. The value for `CN1CCN(Cc2nc(C(N)=O)nn2-c2ccc(Cl)cc2C(=O)c2ccccc2Cl)CC1` was 167 to 169 °C. The value for `CCC(C)COc1ccc(N=Nc2ccc(F)cc2)cc1` (centres undefined) was 64.3 to 65 °C.

In turn, `C[C@@H](NC(=O)c1ccc(-c2ccccn2)s1)[C@](O)(Cn1cncn1)c1ccc(F)cc1F` yielded a melting point of 212 to 213 °C. The value for `CCc1noc(-c2ncn(-c3cccc(OC)c3)c2COC)n1` was 66 to 68 °C.

For the compound `O=C(O)C1=Cc2cc(Br)cc(Br)c2OC1C(F)(F)F` (centres undefined), the melting point was 225 to 226 °C. The value for `COc1ccc(CCC2COC(Cn3ccnc3)(c3ccc(Cl)cc3Cl)O2)cc1` (centres undefined) was 131 °C; that for `O=C1c2ccccc2C(=O)c2sc(-c3ccccc3F)nc21` was above 260 °C; that for `Cc1ccc(C(=O)N[C@@H](COC(C)(C)C)NC(=S)Nc2cccc([N+](=O)[O-])c2)cc1` was 169 to 171 °C. The value for `CCOP(=O)(Cc1cccc(NC(=O)C2=Cc3cc(C4CCCCC4)ccc3CC2)c1)OCC` was 54 to 56 °C; that for `CCc1nc2ccccc2c2ccc(F)cc12` was 105 to 106 °C. The value for `COc1ccc(C(=O)NC[C@@H](C(=O)NO)N2CCN(S(C)(=O)=O)CC2)cc1` was 158 °C; that for `CN(c1ccc(O)cc1)c1ncnc2cc(Cl)ccc12` was 165 °C. Compound `COc1ccc(C2CCC(=O)N(CCN(C)C)c3ccccc3C2=O)cc1` (centres undefined) displayed a melting point of 116 to 117 °C. The value for `CCc1ccc(-c2nc3cccnc3n2-c2ccc(CCNC[C@H](O)COc3ccc(O)cc3)cc2)cc1` was 75 to 78 °C. On to `Clc1cccc2c1CNC(=Nc1ccccc1)CS2`, for which the melting point was in the range of 150 to 152 °C. The value for `CC(C)c1ccc(-c2ccc(/C=C/C(=O)Nc3ccc(CN(C)C4CCOCC4)cc3)s2)cc1` was 187 to 189 °C; that for `CCc1cccc(CC)c1NC(=O)c1c(-c2ccccc2)oc(C)cc1=O` was 186 to 189 °C. Compound `O=C(Nc1cccc2c(NN3CCOC3=O)ccnc12)c1c(Cl)cccc1Cl` had a melting point above 250 °C.

In turn, `Cc1c(-c2ccccc2)oc2c(C(=O)NCCCN3CCN(c4ccccc4OC(F)(F)F)CC3)cccc2c1=O` had a melting point of 103 to 112 °C.

`COc1ccc(S(=O)(=O)N2C(=O)C(OC(=O)Oc3ccccc3)(c3ccccc3C(F)(F)F)c3cc(Cl)ccc32)c(OC)c1` (centres undefined) gave a melting point of 191 °C. `C#Cc1cn(C2CC(O)C(COC(=O)C(C)(C)C)O2)c(=O)[nH]c1=O` (centres undefined) showed a melting point of 64 to 66 °C. The value for `COc1cc(OC)c2c(c1)N(C)C(c1cc(C)c(O)c(C)c1)N=C2` (centres undefined) was 188 to 189 °C. Turning to `CCCCOc1nc2ccnn2c2ncccc12`, the melting point stood at 99.8 °C. The value for `CC(C)(C)OC(=O)CNC1(c2ccccc2Cl)C(=O)Nc2ccc(Cl)cc21` (centres undefined) was 217 °C; that for `COC(=O)C=C1CCCCC1c1cc(OC)cc(OC)c1` (centres undefined) was 80 to 81 °C; that for `Cc1cccc(CCOc2cccc(-c3cccc(C(=O)O)c3)n2)c1` was 125 to 126 °C. Regarding `CC(C)Cn1cnc2c(N)nc3cccnc3c21`, the melting point lay within 230 to 232 °C.

As for `Cn1c(-c2ccc(Cl)cc2)cc2ncccc2c1=O`, the melting point was 139 to 140 °C. The value for `O=C(CCc1ccncc1)c1c(O)c2cccnc2n(-c2cccc([N+](=O)[O-])c2)c1=O` was 174 to 177 °C; that for `CCN(C1CCN(Cc2ccccc2)C1)S(=O)(=O)c1ccc(Nc2nccc(Nc3ccc(F)cc3)n2)cc1` (centres undefined) was 125 to 127 °C; that for `ClCc1cncc(-c2ccccc2)c1` was 75 to 76 °C. The compound `N#CC(CCN1C2CCC1CC2)(c1ccccc1)c1ccccc1` gave a melting point of 79 to 81 °C. `CCOC(=O)c1cc2c(C)c(C)cc(N(CC)S(=O)(=O)c3cccs3)c2[nH]1` displayed a melting point of 134 to 135 °C. The value for `CC(C)c1nn(-c2ccc(C(F)(F)F)cn2)cc1C=O` was 89 to 90 °C; that for `Cc1nc(CO)cn1Cc1ccccc1` was 140 to 146 °C. As for `FC(F)(F)Oc1ccc(-c2coc3ccc(-c4nnc(N5CCNCC5)o4)cc23)cc1`, the melting point was in the range of 138 to 140 °C. The value for `CCc1ccc(C(=O)N[C@H](Cc2ccccc2)C(=O)O)cc1` was 166 °C; that for `Nc1ncc(-c2ccc([N+](=O)[O-])cc2-c2cccc(Cl)c2Cl)c(N)n1` was 237 to 239 °C.

Take `COC(=O)c1cnn(O)c1`: the melting point is 175 °C. Turning to `O=C1OC(c2ccccc2)=CC1=Cc1cccs1`, the melting point was found to be 141 °C. In the case of `CC(C)CN(Cc1nnc(-c2ncn3c2CN(C)C(=O)c2c(Cl)cccc2-3)o1)CC(C)C`, the melting point was 161 to 163 °C. Compound `CCc1c(C)cc(C(=O)NC(C(=O)OC)c2cccs2)c(=O)n1Cc1ccc(F)cc1` (centres undefined) yielded a melting point of 182 to 184 °C. Regarding `CCOC(=O)c1cc2n(c1)CN(C(=O)OCC)c1ccccc1-2`, the melting point was 80 to 82 °C. Regarding `Cc1cccc(-c2ccccc2C(=O)NCCc2ccccc2)c1N1C(=O)c2ccccc2C1=O`, the melting point stood at 156 °C.

Compound `COC(=O)C(C)NC(=O)C1C(C)(C)CCC1(C)C` (centres undefined) returned a melting point of 86.7 °C. The value for `CCON=C(C)C1CCC(=O)CC1=O` (centres undefined) was 105 to 112 °C; that for `CCCCCCCC(=O)OC(C)c1ccc(-c2ccc(OCc3ccccc3)cc2)cc1` (single isomer, unassigned; (+)) was 91 to 92 °C; that for `CC(=O)c1c(O)cc(O)cc1O` was 218 to 219 °C. For `CCCCNC(=O)n1sc(OCC)nc1=O`, the melting point turned out to be 54 °C.
